# Laboratory results reported in ChEMBL document CHEMBL4507303, “Data for DCP probe TP-004” (2021).
# Columns and labels:
# [1] = molecular target: Inhibitor of nuclear factor kappa-B kinase subunit alpha (Homo sapiens) (UniProt O15111); conditions: Compound concentration 1000.0 nM
# [2] = molecular target: Mitogen-activated protein kinase kinase kinase 11 (Homo sapiens) (UniProt Q16584); conditions: Compound concentration 1000.0 nM
# [3] = molecular target: Homeodomain-interacting protein kinase 2 (Homo sapiens) (UniProt Q9H2X6); conditions: Compound concentration 1000.0 nM
# [4] = molecular target: LIM domain kinase 1 (Homo sapiens) (UniProt P53667); conditions: Compound concentration 1000.0 nM
# [5] = molecular target: Sodium-dependent dopamine transporter (Homo sapiens, UniProt Q01959); assay: GPCRScan assay: inhibition of DAT; set-up: radioligand conc. used [nm] 3.6 – 16.0, parental cells stable HEK
# [6] = tested on: Mast/stem cell growth factor receptor Kit (Homo sapiens), P10721 [D816H]; conditions: Compound concentration 1000.0 nM
# [7] = molecular target: Interleukin-1 receptor-associated kinase 1 (Homo sapiens) (UniProt P51617); conditions: Compound concentration 1000.0 nM
# [8] = molecular target: Serine/threonine-protein kinase haspin (Homo sapiens) (UniProt Q8TF76); conditions: Compound concentration 1000.0 nM
# [9] = molecular target: Discoidin domain-containing receptor 2 (Homo sapiens) (UniProt Q16832); conditions: Compound concentration 1000.0 nM
# [10] = molecular target: Maternal embryonic leucine zipper kinase (Homo sapiens) (UniProt Q14680); conditions: Compound concentration 1000.0 nM
# [11] = molecular target: Serine/threonine-protein kinase B-raf (Homo sapiens) (UniProt P15056); conditions: Compound concentration 1000.0 nM
# [12] = molecular target: Serine/threonine-protein kinase Nek5 (Homo sapiens) (UniProt Q6P3R8); conditions: Compound concentration 1000.0 nM
# [13] = molecular target: Mitogen-activated protein kinase 3 (Homo sapiens) (UniProt P27361); conditions: Compound concentration 1000.0 nM
# [14] = molecular target: Tyrosine-protein kinase HCK (Homo sapiens) (UniProt P08631); conditions: Compound concentration 1000.0 nM
# [15] = molecular target: Alpha-1B adrenergic receptor (Homo sapiens) (UniProt P35368); conditions: Compound concentration 10.0 uM
# [16] = tested on: Epidermal growth factor receptor (Homo sapiens), P00533 [L861Q]; conditions: Compound concentration 1000.0 nM
# [17] = molecular target: Serine/threonine-protein kinase OSR1 (Homo sapiens) (UniProt O95747); conditions: Compound concentration 1000.0 nM
# [18] = molecular target: Serine/threonine-protein kinase 32B (Homo sapiens) (UniProt Q9NY57); conditions: Compound concentration 1000.0 nM
# [19] = molecular target: Receptor-type tyrosine-protein kinase FLT3 (Homo sapiens) (UniProt P36888); conditions: Compound concentration 1000.0 nM
# [20] = tested on: Fibroblast growth factor receptor 3 (Homo sapiens), P22607 [G697C]; conditions: Compound concentration 1000.0 nM
# [21] = molecular target: Beta-2 adrenergic receptor (Homo sapiens) (UniProt P07550); conditions: Compound concentration 10.0 uM
# [22] = molecular target: Mitogen-activated protein kinase kinase kinase 10 (Homo sapiens) (UniProt Q02779); conditions: Compound concentration 1000.0 nM
# [23] = molecular target: Serine/threonine-protein kinase PAK 2 (Homo sapiens) (UniProt Q13177); conditions: Compound concentration 1000.0 nM
# [24] = molecular target: Membrane-associated tyrosine- and threonine-specific cdc2-inhibitory kinase (Homo sapiens) (UniProt Q99640); conditions: Compound concentration 1000.0 nM
# Rattus norvegicus = organism: Rattus norvegicus; conditions: Compound concentration 10.0 uM
# [25] = molecular target: Ephrin type-A receptor 8 (Homo sapiens) (UniProt P29322); conditions: Compound concentration 1000.0 nM
# [26] = molecular target: Rhodopsin kinase GRK1 (Homo sapiens) (UniProt Q15835); conditions: Compound concentration 1000.0 nM
# [27] = molecular target: Phosphatidylinositol 4,5-bisphosphate 3-kinase catalytic subunit beta isoform (Homo sapiens) (UniProt P42338); conditions: Compound concentration 1000.0 nM
# [28] = molecular target: D(2) dopamine receptor (Homo sapiens) (UniProt P14416); conditions: Compound concentration 10.0 uM
# [29] = molecular target: Dual specificity mitogen-activated protein kinase kinase 2 (Homo sapiens) (UniProt P36507); conditions: Compound concentration 1000.0 nM
# [30] = tested on: Proto-oncogene tyrosine-protein kinase receptor Ret (Homo sapiens), P07949 [V804L]; conditions: Compound concentration 1000.0 nM
# [31] = molecular target: Casein kinase II subunit alpha (Homo sapiens) (UniProt P68400); conditions: Compound concentration 1000.0 nM
# [32] = molecular target: Inhibitor of nuclear factor kappa-B kinase subunit beta (Homo sapiens) (UniProt O14920); conditions: Compound concentration 1000.0 nM
# [33] = molecular target: 5-hydroxytryptamine receptor 5A (Homo sapiens) (UniProt P47898); conditions: Compound concentration 10.0 uM
# [34] = molecular target: cAMP-dependent protein kinase catalytic subunit PRKX (Homo sapiens) (UniProt P51817); conditions: Compound concentration 1000.0 nM
# [35] = molecular target: Phosphorylase b kinase gamma catalytic chain, skeletal muscle/heart isoform (Homo sapiens) (UniProt Q16816); conditions: Compound concentration 1000.0 nM
# [36] = molecular target: SNF-related serine/threonine-protein kinase (Homo sapiens) (UniProt Q9NRH2); conditions: Compound concentration 1000.0 nM
# [37] = molecular target: Serine/threonine-protein kinase PRP4 homolog (Homo sapiens) (UniProt Q13523); conditions: Compound concentration 1000.0 nM
# [38] = molecular target: Serine/threonine-protein kinase PLK3 (Homo sapiens) (UniProt Q9H4B4); conditions: Compound concentration 1000.0 nM
# [39] = molecular target: Mitogen-activated protein kinase 1 (Homo sapiens) (UniProt P28482); conditions: Compound concentration 1000.0 nM
# [40] = molecular target: Cyclin-dependent kinase 19 (Homo sapiens) (UniProt Q9BWU1); conditions: Compound concentration 1000.0 nM
# [41] = molecular target: Mitogen-activated protein kinase kinase kinase 7 (Homo sapiens) (UniProt O43318); conditions: Compound concentration 1000.0 nM
# [42] = molecular target: Serine/threonine-protein kinase MRCK alpha (Homo sapiens) (UniProt Q5VT25); conditions: Compound concentration 1000.0 nM
# [43] = molecular target: Histamine H2 receptor (Homo sapiens) (UniProt P25021); conditions: Compound concentration 10.0 uM
# [44] = molecular target: Protein kinase C delta type (Homo sapiens) (UniProt Q05655); conditions: Compound concentration 1000.0 nM
# Sodium-dependent dopamine transporter, sequence (Q01959 whole entry): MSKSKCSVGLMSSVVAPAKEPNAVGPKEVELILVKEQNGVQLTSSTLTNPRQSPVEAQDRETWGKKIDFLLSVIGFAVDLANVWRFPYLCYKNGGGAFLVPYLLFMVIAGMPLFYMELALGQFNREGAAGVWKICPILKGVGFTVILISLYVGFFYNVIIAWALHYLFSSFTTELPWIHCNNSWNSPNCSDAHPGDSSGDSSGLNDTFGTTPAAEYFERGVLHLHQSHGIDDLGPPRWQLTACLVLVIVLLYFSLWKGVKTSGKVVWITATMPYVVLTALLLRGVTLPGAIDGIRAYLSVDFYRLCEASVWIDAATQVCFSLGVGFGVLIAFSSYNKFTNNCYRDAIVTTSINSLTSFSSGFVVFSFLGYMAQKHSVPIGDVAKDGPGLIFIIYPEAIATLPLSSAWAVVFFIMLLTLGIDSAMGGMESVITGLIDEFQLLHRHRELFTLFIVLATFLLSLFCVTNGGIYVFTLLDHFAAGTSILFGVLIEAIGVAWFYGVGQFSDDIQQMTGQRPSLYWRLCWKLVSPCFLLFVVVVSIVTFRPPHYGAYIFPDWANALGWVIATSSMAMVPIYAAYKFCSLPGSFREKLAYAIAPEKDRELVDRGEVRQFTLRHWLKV
# Serine/threonine-protein kinase PRP4 homolog (Homo sapiens), sequence (Q13523 whole entry): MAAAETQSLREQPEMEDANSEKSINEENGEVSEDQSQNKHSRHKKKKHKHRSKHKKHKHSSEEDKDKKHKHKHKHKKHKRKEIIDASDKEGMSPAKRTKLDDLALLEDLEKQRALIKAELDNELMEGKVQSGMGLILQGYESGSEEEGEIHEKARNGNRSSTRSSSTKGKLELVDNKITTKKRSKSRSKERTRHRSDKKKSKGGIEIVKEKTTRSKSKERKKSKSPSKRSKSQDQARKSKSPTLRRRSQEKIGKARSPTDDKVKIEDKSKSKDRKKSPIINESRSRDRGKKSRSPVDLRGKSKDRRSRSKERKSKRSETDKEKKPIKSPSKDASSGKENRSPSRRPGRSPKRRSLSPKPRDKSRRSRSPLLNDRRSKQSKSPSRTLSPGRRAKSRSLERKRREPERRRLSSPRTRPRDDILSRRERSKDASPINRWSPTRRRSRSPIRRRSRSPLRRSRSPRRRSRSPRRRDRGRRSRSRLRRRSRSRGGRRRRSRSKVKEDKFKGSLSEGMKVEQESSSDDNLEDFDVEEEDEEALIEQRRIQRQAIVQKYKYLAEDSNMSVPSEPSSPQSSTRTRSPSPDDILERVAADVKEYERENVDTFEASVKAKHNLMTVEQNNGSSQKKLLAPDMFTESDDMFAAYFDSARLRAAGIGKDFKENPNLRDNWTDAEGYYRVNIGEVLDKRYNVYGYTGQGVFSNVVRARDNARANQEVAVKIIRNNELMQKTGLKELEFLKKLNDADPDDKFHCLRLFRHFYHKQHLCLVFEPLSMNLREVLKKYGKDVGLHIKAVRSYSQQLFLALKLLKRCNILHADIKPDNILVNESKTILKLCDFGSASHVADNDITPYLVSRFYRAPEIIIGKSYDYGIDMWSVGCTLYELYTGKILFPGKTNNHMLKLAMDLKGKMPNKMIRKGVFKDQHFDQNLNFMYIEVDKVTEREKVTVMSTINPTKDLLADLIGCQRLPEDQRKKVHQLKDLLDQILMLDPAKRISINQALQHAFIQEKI
# Casein kinase II subunit alpha (Homo sapiens), sequence (P68400 whole entry, looked up): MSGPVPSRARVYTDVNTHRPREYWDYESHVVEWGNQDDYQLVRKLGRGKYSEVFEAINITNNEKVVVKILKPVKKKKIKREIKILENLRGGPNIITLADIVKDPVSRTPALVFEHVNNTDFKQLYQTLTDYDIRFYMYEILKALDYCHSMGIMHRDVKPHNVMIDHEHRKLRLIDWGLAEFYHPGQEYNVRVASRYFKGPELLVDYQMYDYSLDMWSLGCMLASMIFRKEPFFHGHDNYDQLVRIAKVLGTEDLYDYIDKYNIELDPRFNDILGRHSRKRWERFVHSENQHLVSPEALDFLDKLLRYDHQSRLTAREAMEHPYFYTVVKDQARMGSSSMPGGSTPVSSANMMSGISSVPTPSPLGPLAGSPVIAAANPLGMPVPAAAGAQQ
# Serine/threonine-protein kinase PLK3 (Homo sapiens), sequence (Q9H4B4 whole entry, looked up): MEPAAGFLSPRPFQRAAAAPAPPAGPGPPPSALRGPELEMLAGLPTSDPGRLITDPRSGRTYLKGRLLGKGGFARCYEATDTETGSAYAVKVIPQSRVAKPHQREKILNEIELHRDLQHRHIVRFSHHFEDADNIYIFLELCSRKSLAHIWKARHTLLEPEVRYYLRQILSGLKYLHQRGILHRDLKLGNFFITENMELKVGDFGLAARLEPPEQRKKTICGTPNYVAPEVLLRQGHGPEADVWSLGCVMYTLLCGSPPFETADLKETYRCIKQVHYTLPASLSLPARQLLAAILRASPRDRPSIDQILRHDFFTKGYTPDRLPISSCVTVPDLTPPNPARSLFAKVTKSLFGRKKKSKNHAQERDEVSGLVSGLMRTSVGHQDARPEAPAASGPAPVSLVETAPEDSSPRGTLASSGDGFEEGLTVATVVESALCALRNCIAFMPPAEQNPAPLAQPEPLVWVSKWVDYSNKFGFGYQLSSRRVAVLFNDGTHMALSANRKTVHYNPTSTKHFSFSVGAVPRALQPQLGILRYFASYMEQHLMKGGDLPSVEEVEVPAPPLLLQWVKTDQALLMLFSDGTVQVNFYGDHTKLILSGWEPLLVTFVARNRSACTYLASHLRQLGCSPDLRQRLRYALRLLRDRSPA
# Mitogen-activated protein kinase kinase kinase 7 (Homo sapiens), sequence (O43318 whole entry): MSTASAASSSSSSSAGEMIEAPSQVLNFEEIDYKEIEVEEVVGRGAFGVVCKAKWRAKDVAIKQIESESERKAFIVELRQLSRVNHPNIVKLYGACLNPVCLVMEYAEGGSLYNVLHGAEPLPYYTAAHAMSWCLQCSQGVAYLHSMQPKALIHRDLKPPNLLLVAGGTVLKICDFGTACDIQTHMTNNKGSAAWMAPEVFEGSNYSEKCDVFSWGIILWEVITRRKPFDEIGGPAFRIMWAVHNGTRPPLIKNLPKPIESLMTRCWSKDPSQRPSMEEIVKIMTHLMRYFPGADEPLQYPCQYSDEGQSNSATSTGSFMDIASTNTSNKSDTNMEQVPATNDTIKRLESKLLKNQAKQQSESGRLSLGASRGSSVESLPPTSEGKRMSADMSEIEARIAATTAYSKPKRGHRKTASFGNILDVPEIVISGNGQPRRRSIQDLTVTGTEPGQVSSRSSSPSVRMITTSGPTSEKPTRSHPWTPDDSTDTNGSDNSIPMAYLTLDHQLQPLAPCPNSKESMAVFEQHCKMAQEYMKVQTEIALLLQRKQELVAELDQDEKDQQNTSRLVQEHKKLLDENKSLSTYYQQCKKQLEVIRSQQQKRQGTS
# Cyclin-dependent kinase 19 (Homo sapiens), sequence (Q9BWU1 whole entry): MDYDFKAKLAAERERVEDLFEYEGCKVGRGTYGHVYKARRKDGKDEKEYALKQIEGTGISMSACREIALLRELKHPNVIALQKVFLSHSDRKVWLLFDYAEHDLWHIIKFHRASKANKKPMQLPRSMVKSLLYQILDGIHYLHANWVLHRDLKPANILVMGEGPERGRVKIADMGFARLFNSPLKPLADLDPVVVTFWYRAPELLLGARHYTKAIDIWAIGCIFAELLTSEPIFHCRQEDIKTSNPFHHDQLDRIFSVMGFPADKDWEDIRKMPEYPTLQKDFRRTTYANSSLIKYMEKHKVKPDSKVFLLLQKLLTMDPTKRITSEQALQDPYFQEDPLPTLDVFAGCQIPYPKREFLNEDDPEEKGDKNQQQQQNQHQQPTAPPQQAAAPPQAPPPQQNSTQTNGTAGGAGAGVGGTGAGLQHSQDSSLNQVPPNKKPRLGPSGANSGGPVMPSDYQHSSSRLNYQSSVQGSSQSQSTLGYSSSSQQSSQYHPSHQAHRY
# Mitogen-activated protein kinase 3 (Homo sapiens), sequence (P27361 whole entry): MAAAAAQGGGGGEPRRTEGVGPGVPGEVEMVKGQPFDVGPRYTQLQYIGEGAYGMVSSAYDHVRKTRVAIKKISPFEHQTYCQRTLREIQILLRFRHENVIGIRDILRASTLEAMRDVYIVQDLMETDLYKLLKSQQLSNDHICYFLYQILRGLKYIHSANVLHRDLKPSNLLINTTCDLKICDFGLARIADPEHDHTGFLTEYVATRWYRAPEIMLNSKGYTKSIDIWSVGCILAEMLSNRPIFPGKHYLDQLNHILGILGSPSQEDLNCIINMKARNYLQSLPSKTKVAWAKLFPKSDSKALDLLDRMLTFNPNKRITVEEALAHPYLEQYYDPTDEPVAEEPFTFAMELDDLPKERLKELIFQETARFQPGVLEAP
# 5-hydroxytryptamine receptor 5A (Homo sapiens), sequence (P47898 whole entry): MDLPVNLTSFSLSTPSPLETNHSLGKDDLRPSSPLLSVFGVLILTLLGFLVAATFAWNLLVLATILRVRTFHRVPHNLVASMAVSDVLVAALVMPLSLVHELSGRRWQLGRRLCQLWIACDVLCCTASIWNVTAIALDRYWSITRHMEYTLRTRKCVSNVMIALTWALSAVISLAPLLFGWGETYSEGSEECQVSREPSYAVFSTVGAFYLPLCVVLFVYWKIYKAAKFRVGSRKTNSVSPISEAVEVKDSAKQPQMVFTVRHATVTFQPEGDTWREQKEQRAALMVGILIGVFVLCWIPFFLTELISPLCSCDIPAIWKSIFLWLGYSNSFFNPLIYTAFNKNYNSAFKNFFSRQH
# Phosphorylase b kinase gamma catalytic chain, skeletal muscle/heart isoform (Homo sapiens), sequence (Q16816 whole entry, looked up, canonical isoform): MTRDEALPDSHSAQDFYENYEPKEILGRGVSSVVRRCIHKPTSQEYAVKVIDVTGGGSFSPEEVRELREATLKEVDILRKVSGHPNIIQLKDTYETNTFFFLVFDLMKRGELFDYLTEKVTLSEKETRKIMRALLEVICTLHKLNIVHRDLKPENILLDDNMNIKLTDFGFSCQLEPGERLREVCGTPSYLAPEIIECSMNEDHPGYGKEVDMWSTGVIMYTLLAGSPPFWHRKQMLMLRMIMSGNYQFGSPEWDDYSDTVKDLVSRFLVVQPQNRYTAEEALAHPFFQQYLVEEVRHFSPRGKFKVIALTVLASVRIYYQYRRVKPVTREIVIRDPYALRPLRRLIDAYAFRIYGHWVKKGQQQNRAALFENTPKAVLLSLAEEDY
smiles,measurement,setting,value
Cc1nc(N2CC[C@@H](O)C2)ncc1-c1cc(C(F)(F)F)cc2[nH]ncc12 [TP-004],residual activity,[1],76%
same,residual activity,[2],100%
same,residual activity,[3],74%
same,residual activity,[4],85%
same,Ki,[5]; read-out: Ki,1680 nM
same,Ki,[5]; read-out: pKi (converted),1580 nM
same,residual activity,[6],53%
same,residual activity,[7],100%
same,residual activity,[8],66%
same,residual activity,[9],75%
same,residual activity,[10],100%
same,residual activity,[11],73%
same,residual activity,[12],100%
same,residual activity,[13],100%
same,residual activity,[14],100%
same,inhibition,[15],15.9%
same,residual activity,[16],100%
same,residual activity,[17],67%
same,residual activity,[18],100%
same,residual activity,[19],67%
same,residual activity,[20],90%
same,inhibition,[21],-2.23%
same,residual activity,[22],100%
same,residual activity,[23],100%
same,residual activity,[24],100%
same,inhibition,Rattus norvegicus,1.57%
same,residual activity,[25],61%
same,residual activity,[26],52%
same,residual activity,[27],60%
same,inhibition,[28],12.6%
same,residual activity,[29],74%
same,residual activity,[30],100%
same,residual activity,[31],85%
same,residual activity,[32],77%
same,inhibition,[33],-2.1%
same,residual activity,[34],97%
same,residual activity,[35],81%
same,residual activity,[36],96%
same,residual activity,[37],100%
same,residual activity,[38],78%
same,residual activity,[39],100%
same,residual activity,[40],100%
same,residual activity,[41],89%
same,residual activity,[42],100%
same,inhibition,[43],-8.45%
same,residual activity,[44],94%
